Test results published in patent US20250368648A1, “MULTI-CYCLIC IRAK AND FLT3 INHIBITING COMPOUNDS AND USES THEREOF” (CHILDREN'S HOSPITAL MEDICAL CENTER, priority 2022, published 2025).
Residue numbers refer to the chain shown, from its start.

Tests used:
[1] = target: T1, FLT3 D835Y (Homo sapiens, UniProt P36888, D835Y); test: DiscoverX KINOMEscan competition binding, FLT3 D835Y; conditions: no ATP
T1 construct: purchased DiscoverX (KINOMEscan); host or cells: E. coli (T7 phage) or HEK-293
T1 sequence (P36888 27-993 D835Y): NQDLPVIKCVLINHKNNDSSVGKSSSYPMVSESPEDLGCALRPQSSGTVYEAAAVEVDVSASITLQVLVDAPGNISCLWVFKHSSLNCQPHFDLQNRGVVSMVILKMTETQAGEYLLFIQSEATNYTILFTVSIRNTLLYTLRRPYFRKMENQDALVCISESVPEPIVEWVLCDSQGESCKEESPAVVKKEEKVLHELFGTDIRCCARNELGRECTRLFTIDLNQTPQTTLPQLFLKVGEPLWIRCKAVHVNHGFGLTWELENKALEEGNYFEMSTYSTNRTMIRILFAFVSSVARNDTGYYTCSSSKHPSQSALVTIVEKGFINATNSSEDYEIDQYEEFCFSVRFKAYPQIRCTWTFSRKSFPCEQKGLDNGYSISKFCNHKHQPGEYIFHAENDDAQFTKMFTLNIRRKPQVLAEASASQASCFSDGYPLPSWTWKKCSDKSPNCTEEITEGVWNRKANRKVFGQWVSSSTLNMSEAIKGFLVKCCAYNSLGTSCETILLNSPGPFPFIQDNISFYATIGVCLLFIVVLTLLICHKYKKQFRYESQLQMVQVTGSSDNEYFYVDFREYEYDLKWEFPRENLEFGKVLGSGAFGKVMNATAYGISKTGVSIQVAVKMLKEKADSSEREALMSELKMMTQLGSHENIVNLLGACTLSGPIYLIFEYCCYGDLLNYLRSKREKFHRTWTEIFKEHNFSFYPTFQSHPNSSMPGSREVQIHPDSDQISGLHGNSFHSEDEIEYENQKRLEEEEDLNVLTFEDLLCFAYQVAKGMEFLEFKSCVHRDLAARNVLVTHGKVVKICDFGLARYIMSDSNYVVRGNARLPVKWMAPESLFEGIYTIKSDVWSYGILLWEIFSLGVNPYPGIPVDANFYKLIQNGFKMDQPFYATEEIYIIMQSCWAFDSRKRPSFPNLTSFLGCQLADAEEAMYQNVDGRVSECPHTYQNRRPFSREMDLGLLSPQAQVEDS
Description: (§1) Kinase binding data were obtained for various exemplary compounds prepared according to Examples 2-15 using the DiscoverX KINOMEscan® active site-directed competition binding site-directed assay protocol described below. […] As a result, the data report thermodynamic interaction affinities (Kd values), rather than IC50 values that are dependent on ATP concentrations. The assay uses a DNA-tagged version of the protein kinase, and an immobilized ligand bound to a solid support. Compounds that directly or indirectly prevent kinase binding to the immobilized ligand reduce the amount of kinase captured on the solid support, which is detected using an ultra-sensitive qPCR method. Affinity constants reported from the assay have been reported to be independent of the immobilized ligand used that is coupled to the solid support (See supplemental information in Fabian, M. A. et. al., (2005) Nat. […] Wodicka, L. […] Biol. 17, 1241-1249.) Kinase-tagged T7 phage strains were prepared in an E. coli host derived from the BL21 strain. E. coli were grown to log-phase and infected with T7 phage and incubated with shaking at 32° C. until lysis. […] Kds were determined using an 11-point 3-fold compound dilution series with three DMSO control points. […] The kinase concentration in the eluates was measured by qPCR. Binding constants (Kds) were calculated with a standard dose-response curve using the Hill equation. […]

[2] = target: T2, FLT3 (Homo sapiens, UniProt P36888); test: DiscoverX KINOMEscan competition binding, FLT3; design: purchased RBC (Reaction Biology) HotSpot assay; conditions: no ATP
T2 sequence (P36888 27-993): T1 sequence (P36888 27-993 D835Y) with Y809D
Description: as §1

Structure (SMILES): COc1cc2ncc(-c3nc(N[C@H]4CNCC[C@@H]4F)c(F)cc3F)n2nc1C1CCC1 [Compound 15a, 6-(6-cyclobutyl-7-methoxyimidazo[1,2-b]pyridazin-3-yl)-3,5-difluoro-N-((3S,4S)-4-fluoropiperidin-3-yl)pyridin-2-amine]
- Kd [1]: < 0.17 nM
- Kd [2]: < 0.17 nM
